Source: patent US7078438B2, “N-(4 substituted phenyl)-anthranilic acid hydroxamate esters” (Warner-Lambert Company, priority 2002, dated 2006)

Assays:
[1] = test system: MEK; assay: Cellular assay for measuring MEK inhibition (inhibition of ERK phosphorylation); assay type: cell-based; settings: inhibition of phosphorylation of MAP kinase (ERK) in murine colon 26 (C26) carcinoma cells; 1 hour at 37° C.; Western blotting
Procedure: Cellular Assay for Measuring MEK Inhibition
The evaluation of the compounds as MEK inhibitors is performed in an assay that measures their ability to inhibit phosphorylation of MAP kinase (ERK) in murine colon 26 (C26) carcinoma cells. Since ERK1 and ERK2 represent the only known substrates for MEK, measurement of inhibition of ERK phosphorylation in cells provides direct readout of cellular MEK inhibition by the compounds of the invention. Briefly, the assay involves treating exponentially growing C26 cells with varying concentrations of the test compound (or vehicle control) for 1 hour at 37° C. Cells are then rinsed free of compound/vehicle and lysed in a solution containing 70 mM NaCl, 50 mM glycerol phosphate, 10 mM HEPES, pH 7.4, 1% Triton X-100, 1 mM Na3VO4, 100 μM PMSF, 10 μM leupeptin, and 10 μM pepstatin. Supernatants are then subjected to gel electrophoresis and Western blotting using a primary antibody recognizing dually phosphorylated ERK1 and ERK2. To evaluate total MAPK levels, blots were subsequently ‘stripped’ and re-probed with a 1:1 mixture of polyclonal antibodies recognizing unphosphorylated ERK1 and ERK2.
The inhibition data generated by the above protocol is disclosed in Table 1. If several concentrations of inhibitor were tested, IC50 values (the concentration which gives 50% inhibition) were determined graphically from the dose response curve for % inhibition. Otherwise, percent inhibitions at measured concentrations are reported.

Compound	IC50 [1]	melting point
CCc1ccc(Nc2c(C(=O)NOCCO)ccc(F)c2F)c(F)c1 [Example 1, 2-[(4-Ethyl-2-fluorophenyl)amino]-3,4-difluoro-N-(2-hydroxyethoxy)benzamide]	2.8 nM	
CC(C)(O)C#Cc1ccc(Nc2c(C(=O)NOCCO)ccc(F)c2F)c(F)c1 [Example 12, 3,4-Difluoro-2-[2-fluoro-4-(3-hydroxy-3-methyl-1-butynyl)anilino]-N-(2-hydroxyethoxy)benzamide]	> 3000 nM	139 to 142 °C
O=C(NOCCO)c1ccc(F)c(F)c1Nc1ccc(CO)cc1F [Example 18, 3,4-Difluoro-2-[2-fluoro-4-(hydroxymethyl)anilino]-N-(2-hydroxyethoxy)benzamide]		108 to 110 °C
CCC(C)(O)C#Cc1ccc(Nc2c(C(=O)NOCCO)ccc(F)c2F)c(F)c1 (stereo not shown) [Example 13, 3,4-Difluoro-2-[2-fluoro-4-(3-hydroxy-3-methyl-1-pentynyl)anilino]-N-(2-hydroxyethoxy)benzamide]	> 1000 nM	127 to 131 °C
NCCCc1ccc(Nc2c(C(=O)NOCCO)ccc(F)c2F)c(F)c1 [Example 14, 2-[4-(3-Aminopropyl)-2-fluoroanilino]-3,4-difluoro-N-(2-hydroxyethoxy)benzamide]	> 1000 nM	178 to 181 °C
CNCCCc1ccc(Nc2c(C(=O)NOCCO)ccc(F)c2F)c(F)c1 [Example 16, 3,4-Difluoro-2-{2-fluoro-4-[3-(methylamino)propyl]anilino}-N-(2-hydroxyethoxy)benzamide]	> 1000 nM	112 to 116 °C
C=CCc1ccc(Nc2c(C(=O)NOCCO)ccc(F)c2F)c(F)c1 [Example 6, 2-(4-Allyl-2-fluoroanilino)-3,4-difluoro-N-(2-hydroxyethoxy)benzamide]	7.8 nM	173 to 177 °C
O=C(NOCCO)c1ccc(F)c(F)c1Nc1ccc(C#CCO)cc1F [Example 10, 3,4-Difluoro-2-[2-fluoro-4-(3-hydroxy-1-propynyl)anilino]-N-(2-hydroxyethoxy)benzamide]	130 nM	169 to 172 °C
O=C(NOCCO)c1ccc(F)c(F)c1Nc1ccc(CO)cc1 [Example 17, 3,4-Difluoro-N-(2-hydroxyethoxy)-2-[[4-(hydroxymethyl)phenyl]amino]benzamide]	> 1000 nM	73 to 77 °C
C=Cc1ccc(Nc2c(C(=O)NOCCO)ccc(F)c2F)c(F)c1 [Example 4, 3,4-Difluoro-2-[(2-fluoro-4-vinylphenyl)amino]-N-(2-hydroxyethoxy)benzamide]	2.6 nM	134 to 138 °C
CN(C)CCCc1ccc(Nc2c(C(=O)NOCCO)ccc(F)c2F)c(F)c1 [Example 15, 2-{4-[3-(Dimethylamino)propyl]-2-fluoroanilino}-3,4-difluoro-N-(2-hydroxyethoxy)benzamide]	> 1000 nM	
C#Cc1ccc(Nc2c(C(=O)NOCCO)ccc(F)c2F)c(Cl)c1 [Example 8, 2-(2-Chloro-4-ethynyl-phenylamino)-3,4-difluoro-N-(2-hydroxy-ethoxy)-benzamide]	4 nM	155 to 157 °C
O=C(NOCCO)c1ccc(F)c(F)c1Nc1ccc(C#CCCO)cc1F [Example 11, 3,4-Difluoro-2-[2-fluoro-4-(4-hydroxy-1-butynyl)anilino]-N-(2-hydroxyethoxy)benzamide]	700 nM	126 to 129 °C
NCC#Cc1ccc(Nc2c(C(=O)NOCCO)ccc(F)c2F)c(F)c1 [Example 9, 2-[4-(3-Amino-1-propynyl)-2-fluoroanilino]-3,4-difluoro-N-(2-hydroxyethoxy)benzamide]	467 nM	72 to 76 °C
Cc1ccc(Nc2c(C(=O)NOCCO)ccc(F)c2F)c(F)c1 [Example 3, 3,4-Difluoro-2-(2-fluoro-4-methylanilino)-N-(2-hydroxyethoxy)benzamide]	0.15 nM	134 to 139 °C
CCc1ccc(Nc2c(C(=O)NOCCO)ccc(F)c2F)c(Cl)c1 [Example 2, 2-(2-Chloro-4-ethyl-phenylamino)-3,4-difluoro-N-(2-hydroxy-ethoxy)-benzamide]	8.6 nM	142.5 to 145 °C
C#Cc1ccc(Nc2c(C(=O)NOCCO)ccc(F)c2F)c(F)c1 [Example 7]	0.15 nM	158 to 161 °C
O=C(NOCCO)c1ccc(F)c(F)c1Nc1ccc(CCCO)cc1F [Example 20, 3,4-Difluoro-2-[2-fluoro-4-(3-hydroxypropyl)anilino]-N-(2-hydroxyethoxy)benzamide]		115 to 116 °C

Further lines, results first:

IC50 [1]	melting point	Compound
190 nM		CCCCc1ccc(Nc2c(C(=O)NOCCO)ccc(F)c2F)c(F)c1 [Example 30, 2-(4-Butyl-2-fluoroanilino)-3,4-difluoro-N-(2-hydroxyethoxy)benzamide]
4.1 nM	144 to 146 °C	CCCc1ccc(Nc2c(C(=O)NOCCO)ccc(F)c2F)c(F)c1 [Example 29, 3,4-Difluoro-2-(2-fluoro-4-propylanilino)-N-(2-hydroxyethoxy)benzamide]
2.2 nM	129 to 132 °C	CCSc1ccc(Nc2c(C(=O)NOCCO)ccc(F)c2F)c(F)c1 [Example 27, 3,4-Difluoro-2-[[2-fluoro-4-(ethylthio)phenyl]amino]-N-(2-hydroxyethoxy)benzamide]
800 nM	65 to 69 °C	O=C(NOCCO)c1ccc(F)c(F)c1Nc1ccc(CCCCO)cc1F [Example 21, 3,4-Difluoro-2-[2-fluoro-4-(4-hydroxybutyl)anilino]-N-(2-hydroxyethoxy)benzamide]
2 nM		CCc1ccc(Nc2c(C(=O)NOC[C@@H](O)CO)ccc(F)c2F)c(F)c1 [Example 32, N-[(S+)2,3-Dihydroxy-propoxy]-2-(4-ethyl-2-fluoro-phenylamino)-3,4-difluoro-benzamide]
	91 to 93 °C	CCc1ccc(Nc2c(C(=O)NOC(CO)CO)ccc(F)c2F)c(F)c1 [Example 33, 2-(4-Ethyl-2-fluoro-phenylamino)-3,4-difluoro-N-(2-hydroxy-1-hydroxymethyl-ethoxy)-benzamide]
	118 to 120 °C	O=C(NOCCO)c1ccc(F)c(F)c1Nc1ccc(CC(O)CO)cc1F (stereo not shown) [Example 22, 2-[4-(2,3-Dihydroxypropyl)-2-fluoroanilino]-3,4-difluoro-N-(2-hydroxyethoxy)benzamide]
720 nM	85 to 88 °C	CS(=O)(=O)c1ccc(Nc2c(C(=O)NOCCO)ccc(F)c2F)c(F)c1 [Example 28, 3,4-Difluoro-2-[[2-fluoro-4-(methylsulfonyl)phenyl]amino]-N-(2-hydroxyethoxy)benzamide]
0.85 nM	108 to 111 °C	CSc1ccc(Nc2c(C(=O)NOCCO)ccc(F)c2F)c(F)c1 [Example 26, 3,4-Difluoro-2-[[2-fluoro-4-(methylthio)phenyl]amino]-N-(2-hydroxyethoxy)benzamide]
22 nM		COCCCc1ccc(Nc2c(C(=O)NOCCO)ccc(F)c2F)c(F)c1 [Example 25, 3,4-Difluoro-2-[[2-fluoro-4-(3-methoxypropyl)phenyl]amino]-N-(2-hydroxyethoxy)benzamide]
590 nM		CCC(C)(O)CCc1ccc(Nc2c(C(=O)NOCCO)ccc(F)c2F)c(F)c1 (stereo not shown) [Example 24, 3,4-Difluoro-2-[2-fluoro-4-(3-hydroxy-3-methylpentyl)anilino]-N-(2-hydroxyethoxy)benzamide]
200 nM		CC(C)(O)CCc1ccc(Nc2c(C(=O)NOCCO)ccc(F)c2F)c(F)c1 [Example 23, 3,4-Difluoro-2-[2-fluoro-4-(3-hydroxy-3-methylbutyl)anilino]-N-(2-hydroxyethoxy)benzamide]
